± gives the expanded uncertainty stated by the source.
Assay: xn = mol fraction of the nth substance listed
Details: 101 kPa, Liquid

CC(=O)OC(C)=O [ethanoic anhydride] + CC(=O)O
Details | mass density [kg/m3] | viscosity [mPa·s]
293.15 K, x2 = 0 | 1080.89 ± 1.5 | 0.888 ± 0.016
293.15 K, x2 = 0.1 | 1079.28 ± 1.4 | 0.905 ± 0.016
293.15 K, x2 = 0.2 | 1077.19 ± 1.4 | 0.92 ± 0.016
293.15 K, x2 = 0.2999 | 1074.93 ± 1.3 | 0.934 ± 0.016
293.15 K, x2 = 0.3996 | 1072.42 ± 1.2 | 0.954 ± 0.016
293.15 K, x2 = 0.4999 | 1069.56 ± 1.2 | 0.975 ± 0.016
293.15 K, x2 = 0.5965 | 1066.68 ± 1.1 | 1.004 ± 0.016
293.15 K, x2 = 0.6992 | 1063.1 ± 1 | 1.041 ± 0.016
293.15 K, x2 = 0.8004 | 1059.19 ± 0.97 | 1.084 ± 0.016
293.15 K, x2 = 0.8976 | 1054.94 ± 0.92 | 1.145 ± 0.017
298.15 K, x2 = 0 | 1074.8 ± 1.5 | 0.829 ± 0.015
298.15 K, x2 = 0.1 | 1073.24 ± 1.4 | 0.844 ± 0.015
298.15 K, x2 = 0.2 | 1071.18 ± 1.3 | 0.859 ± 0.015
298.15 K, x2 = 0.2999 | 1068.96 ± 1.2 | 0.872 ± 0.015
298.15 K, x2 = 0.3996 | 1066.47 ± 1.2 | 0.887 ± 0.015
298.15 K, x2 = 0.4999 | 1063.66 ± 1.1 | 0.908 ± 0.015
298.15 K, x2 = 0.5965 | 1060.8 ± 1.1 | 0.933 ± 0.015
298.15 K, x2 = 0.6992 | 1057.27 ± 1 | 0.966 ± 0.015
298.15 K, x2 = 0.8004 | 1053.41 ± 0.94 | 1.008 ± 0.016
298.15 K, x2 = 0.8976 | 1049.21 ± 0.88 | 1.057 ± 0.016
303.15 K, x2 = 0 | 1068.7 ± 1.4 | 0.778 ± 0.015
303.15 K, x2 = 0.1 | 1067.18 ± 1.4 | 0.793 ± 0.015
303.15 K, x2 = 0.2 | 1065.17 ± 1.3 | 0.805 ± 0.015
303.15 K, x2 = 0.2999 | 1062.98 ± 1.2 | 0.819 ± 0.015
303.15 K, x2 = 0.3996 | 1060.53 ± 1.1 | 0.831 ± 0.015
303.15 K, x2 = 0.4999 | 1057.75 ± 1.1 | 0.849 ± 0.015
303.15 K, x2 = 0.5965 | 1054.93 ± 1 | 0.874 ± 0.015
303.15 K, x2 = 0.6992 | 1051.45 ± 0.96 | 0.903 ± 0.015
303.15 K, x2 = 0.8004 | 1047.64 ± 0.9 | 0.936 ± 0.015
303.15 K, x2 = 0.8976 | 1043.48 ± 0.85 | 0.985 ± 0.015
308.15 K, x2 = 0 | 1062.61 ± 1.4 | 0.729 ± 0.014
308.15 K, x2 = 0.1 | 1061.12 ± 1.3 | 0.742 ± 0.014
308.15 K, x2 = 0.2 | 1059.15 ± 1.2 | 0.754 ± 0.014
308.15 K, x2 = 0.2999 | 1057 ± 1.2 | 0.768 ± 0.014
308.15 K, x2 = 0.3996 | 1054.57 ± 1.1 | 0.777 ± 0.014
308.15 K, x2 = 0.4999 | 1051.83 ± 1 | 0.793 ± 0.014
308.15 K, x2 = 0.5965 | 1049.05 ± 0.98 | 0.814 ± 0.014
308.15 K, x2 = 0.6992 | 1045.62 ± 0.92 | 0.842 ± 0.014
308.15 K, x2 = 0.8004 | 1041.85 ± 0.86 | 0.873 ± 0.014
308.15 K, x2 = 0.8976 | 1037.75 ± 0.81 | 0.919 ± 0.015
313.15 K, x2 = 0 | 1056.49 ± 1.4 | 0.688 ± 0.014
313.15 K, x2 = 0.1 | 1055.06 ± 1.3 | 0.699 ± 0.014
313.15 K, x2 = 0.2 | 1053.12 ± 1.2 | 0.71 ± 0.014
313.15 K, x2 = 0.2999 | 1051 ± 1.1 | 0.721 ± 0.014
313.15 K, x2 = 0.3996 | 1048.6 ± 1.1 | 0.734 ± 0.014
313.15 K, x2 = 0.4999 | 1045.9 ± 1 | 0.748 ± 0.014
313.15 K, x2 = 0.5965 | 1043.16 ± 0.94 | 0.766 ± 0.014
313.15 K, x2 = 0.6992 | 1039.78 ± 0.88 | 0.791 ± 0.014
313.15 K, x2 = 0.8004 | 1036.06 ± 0.83 | 0.82 ± 0.014
313.15 K, x2 = 0.8976 | 1032.01 ± 0.77 | 0.86 ± 0.014
318.15 K, x2 = 0 | 1050.38 ± 1.3 | 0.648 ± 0.014
318.15 K, x2 = 0.1 | 1048.96 ± 1.2 | 0.659 ± 0.014
318.15 K, x2 = 0.2 | 1047.07 ± 1.2 | 0.666 ± 0.014
318.15 K, x2 = 0.2999 | 1044.99 ± 1.1 | 0.678 ± 0.014
318.15 K, x2 = 0.3996 | 1042.62 ± 1 | 0.688 ± 0.013
318.15 K, x2 = 0.4999 | 1039.96 ± 0.96 | 0.703 ± 0.014
318.15 K, x2 = 0.5965 | 1037.26 ± 0.9 | 0.721 ± 0.014
318.15 K, x2 = 0.6992 | 1033.93 ± 0.84 | 0.743 ± 0.014
318.15 K, x2 = 0.8004 | 1030.27 ± 0.79 | 0.77 ± 0.014
318.15 K, x2 = 0.8976 | 1026.28 ± 0.74 | 0.8 ± 0.014
323.15 K, x2 = 0 | 1044.24 ± 1.3 | 0.61 ± 0.013
323.15 K, x2 = 0.1 | 1042.87 ± 1.2 | 0.621 ± 0.013
323.15 K, x2 = 0.2 | 1041.01 ± 1.1 | 0.627 ± 0.013
323.15 K, x2 = 0.2999 | 1038.96 ± 1.1 | 0.638 ± 0.013
323.15 K, x2 = 0.3996 | 1036.63 ± 0.98 | 0.649 ± 0.013
323.15 K, x2 = 0.4999 | 1034.01 ± 0.92 | 0.661 ± 0.013
323.15 K, x2 = 0.5965 | 1031.34 ± 0.86 | 0.676 ± 0.013
323.15 K, x2 = 0.6992 | 1028.06 ± 0.81 | 0.699 ± 0.013
323.15 K, x2 = 0.8004 | 1024.46 ± 0.75 | 0.723 ± 0.013
323.15 K, x2 = 0.8976 | 1020.54 ± 0.7 | 0.751 ± 0.014
328.15 K, x2 = 0 | 1038.07 ± 1.2 | 0.58 ± 0.013
328.15 K, x2 = 0.1 | 1036.74 ± 1.1 | 0.587 ± 0.013
328.15 K, x2 = 0.2 | 1034.94 ± 1.1 | 0.595 ± 0.013
328.15 K, x2 = 0.2999 | 1032.91 ± 1 | 0.603 ± 0.013
328.15 K, x2 = 0.3996 | 1030.61 ± 0.94 | 0.614 ± 0.013
328.15 K, x2 = 0.4999 | 1028.04 ± 0.88 | 0.625 ± 0.013
328.15 K, x2 = 0.5965 | 1025.39 ± 0.82 | 0.639 ± 0.013
328.15 K, x2 = 0.6992 | 1022.18 ± 0.77 | 0.66 ± 0.013
328.15 K, x2 = 0.8004 | 1018.64 ± 0.71 | 0.68 ± 0.013
328.15 K, x2 = 0.8976 | 1014.79 ± 0.66 | 0.708 ± 0.013
333.15 K, x2 = 0 | 1031.9 ± 1.2 | 0.548 ± 0.013
333.15 K, x2 = 0.1 | 1030.63 ± 1.1 | 0.556 ± 0.013
333.15 K, x2 = 0.2 | 1028.83 ± 1 | 0.562 ± 0.013
333.15 K, x2 = 0.2999 | 1026.84 ± 0.97 | 0.57 ± 0.013
333.15 K, x2 = 0.3996 | 1024.57 ± 0.9 | 0.58 ± 0.013
333.15 K, x2 = 0.4999 | 1022.05 ± 0.84 | 0.59 ± 0.013
333.15 K, x2 = 0.5965 | 1019.44 ± 0.79 | 0.605 ± 0.013
333.15 K, x2 = 0.6992 | 1016.3 ± 0.73 | 0.622 ± 0.013
333.15 K, x2 = 0.8004 | 1012.82 ± 0.68 | 0.64 ± 0.013
333.15 K, x2 = 0.8976 | 1009.03 ± 0.63 | 0.665 ± 0.013
338.15 K, x2 = 0 | 1025.7 ± 1.1 | 0.521 ± 0.013
338.15 K, x2 = 0.1 | 1024.48 ± 1.1 | 0.53 ± 0.013
338.15 K, x2 = 0.2 | 1022.71 ± 0.99 | 0.533 ± 0.013
338.15 K, x2 = 0.2999 | 1020.75 ± 0.92 | 0.542 ± 0.013
338.15 K, x2 = 0.3996 | 1018.52 ± 0.86 | 0.551 ± 0.013
338.15 K, x2 = 0.4999 | 1016.04 ± 0.8 | 0.558 ± 0.012
338.15 K, x2 = 0.5965 | 1013.48 ± 0.75 | 0.575 ± 0.013
338.15 K, x2 = 0.6992 | 1010.39 ± 0.69 | 0.59 ± 0.013
338.15 K, x2 = 0.8004 | 1006.97 ± 0.64 | 0.605 ± 0.013
338.15 K, x2 = 0.8976 | 1003.24 ± 0.59 | 0.629 ± 0.013
